# Results: the supplement of paper PMC6045584
# ± gives the standard deviation of the averaged measurements.
# Key:
# [1] = compound: T1, COCC[n+]1c2c(n(Cc3cnccn3)c1C)C(=O)c1ccccc1C2=O [YM155]; test: surviving fraction relative to DMSO-only wells; higher = less growth inhibition; settings: exposure time: 5 days
# Summary of the method: (§1)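 Continuous five-day exposure to inhibitors at 0.5, 1, 5, 10, 50, 100, 500 and 1000 nM started 24 hours after log-phase tumour cell lines were seeded at 250–500 cells per well in 384-well plates. Luminescence was read after 10 minutes at room temperature. Viability is given as surviving fraction, meaning CellTiter-Glo luminescence normalised to the median of DMSO-only wells.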
# [2] = compound: T2, O=C(O)C1(C(=O)O)CCC1.[NH2-].[NH2-].[Pt+2] [CARBOPLATIN]; test: as above; settings: exposure time: 5 days
# Summary of the method: as §1
# [3] = compound: CC(=O)c1c(C)c2cnc(Nc3ccc(N4CCNCC4)cn3)nc2n(C2CCCC2)c1=O; test: as above; settings: exposure time: 5 days
# Summary of the method: as §1
# [4] = compound: T3, CC(=O)O[C@H]1C(=O)[C@@]2(C)[C@H]([C@H](OC(=O)c3ccccc3)[C@]3(O)C[C@H](OC(=O)[C@H](O)[C@@H](NC(=O)c4ccccc4)c4ccccc4)C(C)=C1C3(C)C)[C@]1(OC(C)=O)CO[C@@H]1C[C@@H]2O [PACLITAXEL]; test: as above; settings: exposure time: 5 days
# Summary of the method: as §1
# [5] = compound: Cc1ccc(-c2cc(C(F)(F)F)nn2-c2ccc(S(N)(=O)=O)cc2)cc1 [CELECOXIB]; test: area under dose-response curve of surviving fraction (unscaled, Aref=0) (surviving fraction x log10(nM)); higher = more resistant; settings: exposure time: 5 days; dose range 0.5-1000 nM
# Summary of the method: (§2)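 Tumour cell lines in 384-well plates were exposed to eight inhibitor concentrations, from 0.5 to 1000 nM, for five days, and viability was read by CellTiter-Glo luminescence in three screens per line. Signals were normalised to DMSO-only wells, and 3-parameter logistic regression in the drc R package fitted dose-response survival curves to the surviving fractions. Area under the curve is given as the unscaled activity area. That area is taken over log10 dose with Aref = 0.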
# [6] = compound: CC(=O)NCC(=O)N1[C@@H]2CC[C@H]1c1ccc(Nc3ncc(C(F)(F)F)c(NC4CCC4)n3)cc12; test: as above; settings: exposure time: 5 days; dose range 0.5-1000 nM
# Summary of the method: as §2
# [7] = compound: CC[C@@]1(O)C(=O)OCc2c1cc1n(c2=O)Cc2cc3ccccc3nc2-1 [CAMPTOTHECIN]; test: as above; settings: exposure time: 5 days; dose range 0.5-1000 nM
# Summary of the method: as §2
# [8] = compound: COc1cc2ncnc(Nc3ccc(F)c(Cl)c3)c2cc1OCCCN1CCOCC1 [GEFITINIB]; test: as above; settings: exposure time: 5 days; dose range 0.5-1000 nM
# Summary of the method: as §2
# [9] = compound: C[C@]1(O)C[C@@H](c2nc(-c3ccc4ccc(-c5ccccc5)nc4c3)c3c(N)nccn32)C1 [OSI-906]; test: as above; settings: exposure time: 5 days; dose range 0.5-1000 nM
# Summary of the method: as §2
# [10] = compound: T1, YM155; test: as above; settings: exposure time: 5 days; dose range 0.5-1000 nM
# Summary of the method: as §2
# [11] = compound: T2, CARBOPLATIN; test: as above; settings: exposure time: 5 days; dose range 0.5-1000 nM
# Summary of the method: as §2
# [12] = compound: CC(=O)c1c(C)c2cnc(Nc3ccc(N4CCNCC4)cn3)nc2n(C2CCCC2)c1=O; test: as above; settings: exposure time: 5 days; dose range 0.5-1000 nM
# Summary of the method: as §2
# [13] = compound: T3, PACLITAXEL; test: as above; settings: exposure time: 5 days; dose range 0.5-1000 nM
# Summary of the method: as §2
test system,measurement,setting,value
SCC36 HEADNECK,surviving fraction,[1]; 0.5 nM,1.01 ± 0.035
same,surviving fraction,[1]; 1 nM,1.02 ± 0.042
same,surviving fraction,[1]; 5 nM,1.06 ± 0.14
same,surviving fraction,[1]; 10 nM,0.817 ± 0.07
same,surviving fraction,[1]; 50 nM,0.261 ± 0.056
same,surviving fraction,[1]; 100 nM,0.105 ± 0.0036
same,surviving fraction,[1]; 500 nM,0.04 ± 0.0056
same,surviving fraction,[1]; 1000 nM,0.0387 ± 0.0015
same,surviving fraction,[2]; 0.5 nM,1.07 ± 0.03
same,surviving fraction,[2]; 1 nM,0.992 ± 0.15
same,surviving fraction,[2]; 5 nM,1.09 ± 0.096
same,surviving fraction,[2]; 10 nM,1.07 ± 0.097
same,surviving fraction,[2]; 50 nM,1.06 ± 0.17
same,surviving fraction,[2]; 100 nM,1.04 ± 0.078
same,surviving fraction,[2]; 500 nM,1.05 ± 0.031
same,surviving fraction,[2]; 1000 nM,0.85 ± 0.12
same,surviving fraction,[3]; 0.5 nM,1.02 ± 0.1
same,surviving fraction,[3]; 1 nM,1.01 ± 0.015
same,surviving fraction,[3]; 5 nM,1.17 ± 0.064
same,surviving fraction,[3]; 10 nM,1.11 ± 0.056
same,surviving fraction,[3]; 50 nM,1.1 ± 0.084
same,surviving fraction,[3]; 100 nM,1.07 ± 0.025
same,surviving fraction,[3]; 500 nM,0.923 ± 0.094
same,surviving fraction,[3]; 1000 nM,0.897 ± 0.025
same,surviving fraction,[4]; 0.5 nM,0.966 ± 0.035
same,surviving fraction,[4]; 1 nM,0.8 ± 0.0036
same,surviving fraction,[4]; 5 nM,0.246 ± 0.041
same,surviving fraction,[4]; 10 nM,0.154 ± 0.042
same,surviving fraction,[4]; 50 nM,0.103 ± 0.007
same,surviving fraction,[4]; 100 nM,0.109 ± 0.026
same,surviving fraction,[4]; 500 nM,0.108 ± 0.006
same,surviving fraction,[4]; 1000 nM,0.114 ± 0.017
same,area under dose-response curve,[5],3.53
same,area under dose-response curve,[6],2.74
same,area under dose-response curve,[7],1.36
same,area under dose-response curve,[8],2.61
same,area under dose-response curve,[9],2.48
same,area under dose-response curve,[10],1.77
same,area under dose-response curve,[11],3.45
same,area under dose-response curve,[12],3.5
same,area under dose-response curve,[13],0.905
